{"source": "paper PMC2990605", "about": "(British Journal of Cancer, 2010)", "test": "Adverse events (CTCAEv3.0), worst grade per patient regardless of relation, and laboratory parameters", "format": "in vivo", "conditions": "human, in vivo", "experimental": "Toxicity was evaluated according to common toxicity criteria for adverse events (CTCAEv3.0). The MTD was defined as the dose level(s) at which at least two out of six patients developed DLT.\nToxicity assessment, haematology and clinical biochemistry were performed at baseline and weekly during the study. Physical and ECOG performance status were recorded at baseline and before the next cycle.", "data": [{"smiles": "CC(C)C[C@@H](C(=O)N[C@H](C(=O)OC1CCCC1)c1ccccc1)[C@H](O)C(=O)NO", "note": "[tosedostat]", "values": [{"measurement": "Cough, CTCAE grade 3, patients", "value": 0}, {"measurement": "Cough, CTCAE grade 4, patients", "value": 0}, {"measurement": "Cough, patients with events, %", "value": 41, "unit": "%"}, {"measurement": "Cystitis, CTCAE grade 1, patients", "value": 0}, {"measurement": "Cystitis, CTCAE grade 2, patients", "value": 1}, {"measurement": "Cystitis, CTCAE grade 3, patients", "value": 1}, {"measurement": "Cystitis, CTCAE grade 4, patients", "value": 0}, {"measurement": "Cystitis, patients with events, %", "value": 9, "unit": "%"}, {"measurement": "Dehydration, CTCAE grade 1, patients", "value": 0}, {"measurement": "Dehydration, CTCAE grade 2, patients", "value": 1}, {"measurement": "Dehydration, CTCAE grade 3, patients", "value": 1}, {"measurement": "Dehydration, CTCAE grade 4, patients", "value": 0}, {"measurement": "Dehydration, patients with events, %", "value": 9, "unit": "%"}, {"measurement": "Diabetes mellitus, CTCAE grade 1, patients", "value": 0}, {"measurement": "Diabetes mellitus, CTCAE grade 2, patients", "value": 0}, {"measurement": "Diabetes mellitus, CTCAE grade 3, patients", "value": 1}, {"measurement": "Diabetes mellitus, CTCAE grade 4, patients", "value": 0}, {"measurement": "Diabetes mellitus, patients with events, %", "value": 5, "unit": "%"}, {"measurement": "Diarrhoea, CTCAE grade 1, patients", "value": 5}, {"measurement": "Diarrhoea, CTCAE grade 2, patients", "value": 3}, {"measurement": "Diarrhoea, CTCAE grade 3, patients", "value": 0}, {"measurement": "Diarrhoea, CTCAE grade 4, patients", "value": 0}, {"measurement": "Diarrhoea, patients with events, %", "value": 36, "unit": "%"}, {"measurement": "Dizziness, CTCAE grade 1, patients", "value": 8}, {"measurement": "Dizziness, CTCAE grade 2, patients", "value": 1}, {"measurement": "Dizziness, CTCAE grade 3, patients", "value": 1}, {"measurement": "Dizziness, CTCAE grade 4, patients", "value": 0}, {"measurement": "Dizziness, patients with events, %", "value": 45, "unit": "%"}, {"measurement": "Drug hypersensitivity, CTCAE grade 1, patients", "value": 3}, {"measurement": "Drug hypersensitivity, CTCAE grade 2, patients", "value": 1}, {"measurement": "Drug hypersensitivity, CTCAE grade 3, patients", "value": 7}, {"measurement": "Drug hypersensitivity, CTCAE grade 4, patients", "value": 0}, {"measurement": "Drug hypersensitivity, patients with events, %", "value": 50, "unit": "%"}, {"measurement": "Dry skin, CTCAE grade 1, patients", "value": 3}, {"measurement": "Dry skin, CTCAE grade 2, patients", "value": 0}, {"measurement": "Dry skin, CTCAE grade 3, patients", "value": 1}, {"measurement": "Dry skin, CTCAE grade 4, patients", "value": 0}, {"measurement": "Dry skin, patients with events, %", "value": 18, "unit": "%"}, {"measurement": "Dyspnoea, CTCAE grade 1, patients", "value": 6}, {"measurement": "Dyspnoea, CTCAE grade 4, patients", "value": 0}, {"measurement": "Eosinophilic myocarditis, CTCAE grade 1, patients", "value": 0}, {"measurement": "Eosinophilic myocarditis, CTCAE grade 2, patients", "value": 0}, {"measurement": "Eosinophilic myocarditis, CTCAE grade 3, patients", "value": 0}, {"measurement": "Eosinophilic myocarditis, CTCAE grade 4, patients", "value": 0}, {"measurement": "Eosinophilic myocarditis, patients with events, %", "value": 5, "unit": "%"}, {"measurement": "Erythema, CTCAE grade 1, patients", "value": 1}, {"measurement": "Erythema, CTCAE grade 2, patients", "value": 0}, {"measurement": "Erythema, CTCAE grade 3, patients", "value": 1}, {"measurement": "Erythema, CTCAE grade 4, patients", "value": 0}, {"measurement": "Erythema, patients with events, %", "value": 9, "unit": "%"}, {"measurement": "Fatigue, CTCAE grade 1, patients", "value": 5}, {"measurement": "Fatigue, CTCAE grade 2, patients", "value": 10}, {"measurement": "Fatigue, CTCAE grade 3, patients", "value": 6}, {"measurement": "Fatigue, CTCAE grade 4, patients", "value": 0}, {"measurement": "Fatigue, patients with events, %", "value": 95, "unit": "%"}, {"measurement": "Gastric dilatation, CTCAE grade 1, patients", "value": 0}, {"measurement": "Gastric dilatation, CTCAE grade 2, patients", "value": 0}, {"measurement": "Gastric dilatation, CTCAE grade 3, patients", "value": 1}, {"measurement": "Gastric dilatation, CTCAE grade 4, patients", "value": 0}, {"measurement": "Gastric dilatation, patients with events, %", "value": 5, "unit": "%"}, {"measurement": "General physical health deterioration, CTCAE grade 1, patients", "value": 0}, {"measurement": "General physical health deterioration, CTCAE grade 2, patients", "value": 0}, {"measurement": "General physical health deterioration, CTCAE grade 3, patients", "value": 1}, {"measurement": "General physical health deterioration, CTCAE grade 4, patients", "value": 0}, {"measurement": "General physical health deterioration, patients with events, %", "value": 5, "unit": "%"}, {"measurement": "Hypercalcaemia, CTCAE grade 1, patients", "value": 0}, {"measurement": "Hypercalcaemia, CTCAE grade 2, patients", "value": 0}, {"measurement": "Hypercalcaemia, CTCAE grade 3, patients", "value": 1}, {"measurement": "Hypercalcaemia, CTCAE grade 4, patients", "value": 0}, {"measurement": "Hypercalcaemia, patients with events, %", "value": 5, "unit": "%"}, {"measurement": "Hyperglycaemia, CTCAE grade 1, patients", "value": 0}, {"measurement": "Hyperglycaemia, CTCAE grade 2, patients", "value": 1}, {"measurement": "Hyperglycaemia, CTCAE grade 3, patients", "value": 2}, {"measurement": "Hyperglycaemia, CTCAE grade 4, patients", "value": 0}, {"measurement": "Hyperglycaemia, patients with events, %", "value": 14, "unit": "%"}, {"measurement": "Hyperhidrosis, CTCAE grade 1, patients", "value": 2}, {"measurement": "Hyperhidrosis, CTCAE grade 2, patients", "value": 0}, {"measurement": "Hyperhidrosis, CTCAE grade 3, patients", "value": 1}, {"measurement": "Hyperhidrosis, CTCAE grade 4, patients", "value": 0}, {"measurement": "Hyperhidrosis, patients with events, %", "value": 14, "unit": "%"}, {"measurement": "Leukopenia, CTCAE grade 1, patients", "value": 0}, {"measurement": "Leukopenia, CTCAE grade 2, patients", "value": 1}, {"measurement": "Leukopenia, CTCAE grade 3, patients", "value": 3}, {"measurement": "Leukopenia, CTCAE grade 4, patients", "value": 0}, {"measurement": "Leukopenia, patients with events, %", "value": 18, "unit": "%"}, {"measurement": "Malaise, CTCAE grade 1, patients", "value": 1}, {"measurement": "Malaise, CTCAE grade 2, patients", "value": 1}, {"measurement": "Malaise, CTCAE grade 3, patients", "value": 1}, {"measurement": "Malaise, CTCAE grade 4, patients", "value": 0}, {"measurement": "Malaise, patients with events, %", "value": 14, "unit": "%"}, {"measurement": "Mucosal inflammation, CTCAE grade 1, patients", "value": 4}, {"measurement": "Mucosal inflammation, CTCAE grade 2, patients", "value": 1}, {"measurement": "Mucosal inflammation, CTCAE grade 3, patients", "value": 0}, {"measurement": "Mucosal inflammation, CTCAE grade 4, patients", "value": 0}, {"measurement": "Mucosal inflammation, patients with events, %", "value": 23, "unit": "%"}, {"measurement": "Myalgia, CTCAE grade 1, patients", "value": 8}, {"measurement": "Myalgia, CTCAE grade 2, patients", "value": 1}, {"measurement": "Myalgia, CTCAE grade 3, patients", "value": 1}, {"measurement": "Myalgia, CTCAE grade 4, patients", "value": 0}, {"measurement": "Myalgia, patients with events, %", "value": 45, "unit": "%"}, {"measurement": "Nasopharyngitis, CTCAE grade 1, patients", "value": 6}, {"measurement": "Nasopharyngitis, CTCAE grade 2, patients", "value": 0}, {"measurement": "Nasopharyngitis, CTCAE grade 3, patients", "value": 0}, {"measurement": "Nasopharyngitis, CTCAE grade 4, patients", "value": 0}, {"measurement": "Nasopharyngitis, patients with events, %", "value": 27, "unit": "%"}, {"measurement": "Nausea, CTCAE grade 1, patients", "value": 9}, {"measurement": "Nausea, CTCAE grade 2, patients", "value": 1}, {"measurement": "Nausea, CTCAE grade 3, patients", "value": 0}, {"measurement": "Nausea, CTCAE grade 4, patients", "value": 0}, {"measurement": "Nausea, patients with events, %", "value": 45, "unit": "%"}, {"measurement": "Neoplasms benign, malignant and unspecified (including cysts and polyps), patients with events, %", "value": 14, "unit": "%"}, {"measurement": "Nervous system disorders, patients with events, %", "value": 95, "unit": "%"}, {"measurement": "Neutropenia, CTCAE grade 1, patients", "value": 0}, {"measurement": "Neutropenia, CTCAE grade 2, patients", "value": 0}, {"measurement": "Neutropenia, CTCAE grade 3, patients", "value": 2}, {"measurement": "Neutropenia, CTCAE grade 4, patients", "value": 4}, {"measurement": "Neutropenia, patients with events, %", "value": 27, "unit": "%"}, {"measurement": "Oedema peripheral, CTCAE grade 1, patients", "value": 6}, {"measurement": "Oedema peripheral, CTCAE grade 2, patients", "value": 2}, {"measurement": "Oedema peripheral, CTCAE grade 3, patients", "value": 0}, {"measurement": "Oedema peripheral, CTCAE grade 4, patients", "value": 0}, {"measurement": "Oedema peripheral, patients with events, %", "value": 36, "unit": "%"}, {"measurement": "Oedema, CTCAE grade 1, patients", "value": 4}, {"measurement": "Oedema, CTCAE grade 2, patients", "value": 0}, {"measurement": "Oedema, CTCAE grade 3, patients", "value": 1}, {"measurement": "Oedema, CTCAE grade 4, patients", "value": 0}, {"measurement": "Oedema, patients with events, %", "value": 23, "unit": "%"}, {"measurement": "Peripheral sensory neuropathy, CTCAE grade 1, patients", "value": 6}, {"measurement": "Peripheral sensory neuropathy, CTCAE grade 2, patients", "value": 4}, {"measurement": "Peripheral sensory neuropathy, CTCAE grade 3, patients", "value": 3}, {"measurement": "Peripheral sensory neuropathy, CTCAE grade 4, patients", "value": 0}, {"measurement": "Peripheral sensory neuropathy, patients with events, %", "value": 59, "unit": "%"}, {"measurement": "Pollakiuria, CTCAE grade 1, patients", "value": 0}, {"measurement": "Pollakiuria, CTCAE grade 2, patients", "value": 0}, {"measurement": "Pollakiuria, CTCAE grade 3, patients", "value": 1}, {"measurement": "Pollakiuria, CTCAE grade 4, patients", "value": 0}]}]}
